Laboratory results: patent publication US5032577A, “Peptidylaminodiols” (Abbott Laboratories, priority 1987, dated 1991)
Counter-ions that a name gives are not always drawn.

target: T1, human renal renin (Homo sapiens, UniProt P00797); assay: Inhibition of human renal renin in vitro; angiotensin I formed measured by radioimmunoassay; format: biochemical; settings: not given
T1 construct: human renal renin, free from acid proteolytic activity; from tissue
T1 sequence (P00797 67-406): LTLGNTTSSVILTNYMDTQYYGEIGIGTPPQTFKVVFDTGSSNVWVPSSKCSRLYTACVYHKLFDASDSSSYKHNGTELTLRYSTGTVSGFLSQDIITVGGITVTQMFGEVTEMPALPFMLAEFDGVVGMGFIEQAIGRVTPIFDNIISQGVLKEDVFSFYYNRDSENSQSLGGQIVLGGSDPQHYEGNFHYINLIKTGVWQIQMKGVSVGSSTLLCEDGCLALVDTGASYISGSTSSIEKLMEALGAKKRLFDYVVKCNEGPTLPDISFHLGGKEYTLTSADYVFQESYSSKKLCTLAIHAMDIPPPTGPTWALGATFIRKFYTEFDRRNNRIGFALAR

SMILES | IC50 [nM]
CCOC(=O)N[C@@H](Cc1ccccc1)C(=O)N[C@@H](CC(C)C)C(=O)N[C@@H](CC1CCCCC1)[C@@H](O)[C@@H](O)CC(C)C [Example 36, Ethoxycarbonyl-phe-Leu Amide of 2(S)-Amino-cyclohexyl-3(R),4(S)-dihydroxy-6-methylheptane] | 0.4
CC(C)C[C@H](NC(=O)[C@H](Cc1ccccc1)NC(=O)Cc1c[nH]cn1)C(=O)N[C@@H](CC1CCCCC1)[C@@H](O)[C@@H](O)CC(C)C [Example 88, (Imidazol-4-yl-acetyl)-Phe-Leu Amide of 2(S)-Amino-1-cyclohexyl-3(R),4(S)-dihydroxy-6-methylheptane] | 0.6
CC(C)C[C@H](O)[C@H](O)[C@H](CC1CCCCC1)NC(=O)[C@H](Cc1c[nH]cn1)NC(=O)[C@H](CCc1ccccc1)NC(=O)C(C)C [Example 108, Isobutyryl-Homo-Phe-His Amide of 2(S)-Amino-l-cyclohexyl-3(R),4(S)-dihydroxy-6-methylheptane] | 0.55
CC(C)C[C@H](O)[C@H](O)[C@H](CC1CCCCC1)NC(=O)[C@H](Cc1c[nH]cn1)NC(=O)[C@@H](N)Cc1ccccc1 [Example 84, Phe-His Amide of 2(S)-Amino-l-cyclohexyl-3(R),4(S)-dihydroxy-6-methylheptane] | 10
CNCC(=O)N[C@@H](Cc1ccccc1)C(=O)N[C@@H](Cc1c[nH]cn1)C(=O)N[C@@H](CC1CCCCC1)[C@@H](O)[C@@H](O)CC(C)C [Example 64, H-Sar-Phe-His Amide of 2(S)-Amino-l-cyclohexyl-3(R),4(S)-dihydroxy-6-methylheptane Diacetic Acid Salt] | 3
CC(C)C[C@H](NC(=O)[C@@H](N)Cc1ccccc1)C(=O)N[C@@H](CC1CCCCC1)[C@@H](O)[C@@H](O)CC(C)C [Example 57, H-Phe-Leu Amide of 2(S)-Amino-l-cyclohexyl-3(R),4(S)-dihydroxY-6-methylheptane] | 7.5
CC(C)C[C@H](NC(=O)[C@H](Cc1ccccc1)NC(=O)OCCCOC(=O)CNC(=O)OCc1ccccc1)C(=O)N[C@@H](CC1CCCCC1)[C@@H](O)[C@@H](O)CC(C)C [Example 92, Cbz-Gly Ester of the Resultant Compound of Example 91 (at 3-Hydroxypropyloxy Group)] | 0.5
CC(C)C[C@H](O)[C@H](O)[C@H](CC1CCCCC1)NC(=O)[C@H](Cc1c[nH]cn1)NC(=O)[C@H](Cc1ccccc1)NC(=O)CO [Example 103, Hydroxyacetyl-Phe-His Amide of 2(S)-Amino-l-cyclohexyl-3(R),4(S)-dihydroxy-6-methylheptane] | 1
COC(=O)C(N)CCCCC(=O)N[C@@H](Cc1ccc(OC)cc1)C(=O)N[C@@H](CC(C)C)C(=O)N[C@@H](CC1CCCCC1)[C@@H](O)[C@@H](O)CC(C)C (stereo partly drawn) [Example 193, 6-Amino-6-(methoxycarbonyl)hexanoyl-(4-OMe)Phe-Leu Amide of 2(S)-Amino-l-cyclohexyl-3(R),4(S)-dihydroxy-6-methylheptane] | 0.74
CC(C)C[C@H](O)[C@H](O)[C@H](CC1CCCCC1)NC(=O)[C@H](Cc1c[nH]cn1)NC(=O)[C@H](Cc1ccccc1)NC(=O)OCc1ccccc1 [Example 83, Cbz-Phe-His Amide of 2(S)-Amino-l-cyclohexyl-3(R), 4(S)-dihydroxy-6-methylheptane] | 0.6
CC(C)C[C@H](O)[C@H](O)[C@H](CC1CCCCC1)NC(=O)[C@H](Cc1c[nH]cn1)NC(=O)[C@H](Cc1ccccc1)NC(=O)[C@@H]1CCCN1 [Example 77, H-Pro-Phe-His Amide of 2(S)-Amino-l-cyclohexyl-3(R), 4(S)-dihydroxy-6-methylheptane Acetic Acid Salt] | 0.98
CC(C)C[C@H](O)[C@H](O)[C@H](CC1CCCCC1)NC(=O)[C@H](Cc1c[nH]cn1)NC(=O)[C@H](Cc1ccccc1)NC(=O)[C@@H](C)NC(=O)OCc1ccccc1 [Example 69, Cbz-D-Ala-Phe-His Amide of 2(S)-Amino-l-cyclohexyl-3(R), 4(S)-dihydroxy-6-methylheptane] | 0.81
CC(C)C[C@H](O)[C@H](O)[C@H](CC1CCCCC1)NC(=O)[C@H](Cc1c[nH]cn1)NC(=O)[C@H](Cc1ccccc1)NC(=O)[C@@H]1CCCN1C(=O)OCc1ccccc1 [Example 76, Cbz-Pro-Phe-His Amide of 2(S)-Amino-l-cyclohexyl-3(R), 4(S)-dihydroxy-6-methyl- heptane] | 0.5
CC(C)C[C@H](O)[C@H](O)[C@H](CC1CCCCC1)NC(=O)[C@H](Cc1c[nH]cn1)NC(=O)[C@H](Cc1ccccc1)NC(=O)C(C)(C)N [Example 85, alpha-Aminoisobutyryl-Phe-His Amide of 2(S)-Amino-1-cyclohexyl-3(R),4(S)-dihydroxy-6-methylheptane] | 0.4
CC(C)C[C@H](O)[C@H](O)[C@H](CC1CCCCC1)NC(=O)[C@H](Cc1c[nH]cn1)NC(=O)[C@H](Cc1ccccc1)NC(=O)CN(C)C(=O)OCc1ccccc1 [Example 63, Cbz-Sar-phe-His Amide of 2(S)-Amino-l-cyclohexyl-3(R),4(S)-dihydroxy-6-methylheptane] | 0.45
CC(=O)N(C)[C@@H](Cc1ccccc1)C(=O)N[C@@H](Cc1c[nH]cn1)C(=O)N[C@@H](CC1CCCCC1)[C@@H](O)[C@@H](O)CC(C)C [Example 23, Acetyl-N-methylPhe-His Amide of 2(S)-Amino-1-cyclohexyl-3(R),4(S)-dihydroxy-6-methylheptane] | 10
CC(C)C[C@H](O)[C@H](O)[C@H](CC1CCCCC1)NC(=O)[C@H](Cc1cnc[nH]1)NC(=O)[C@H](Cc1ccccc1)NC(=O)N1CCOCC1 [Example 118, [(4-Morpholinyl)carbonyl]-phe-His Amide of 2(S)-Amino-1-cyclohexyl-3(R),4(S)-dihydroxy-6-methylheptane] | 0.5
COCCOCOCCN(C)C(=O)C[C@@H](Cc1ccccc1)C(=O)N[C@@H](Cc1c[nH]cn1)C(=O)N[C@@H](CC1CCCCC1)[C@@H](O)[C@@H](O)CC(C)C [Example 214, (2R)-2-Benzyl-3-(N-methyl-N-2-methoxyethoxymethoxyethylamino-carbonyl)propionyl-His Amide of 2(S)-Amino-l-cyclohexyl-3(R),4(S)-dihydroxy-6-methylheptane] | 0.24
COc1ccc(C[C@H](N)C(=O)N[C@@H](CC(C)C)C(=O)N[C@@H](CC2CCCCC2)[C@@H](O)[C@@H](O)CC(C)C)cc1 [Example 55, H-(4-OCH3)Phe-Leu Amide of 2(S)-Amino-1-cyclohexyl-3(R),4(S)-dihydroxy-6-methylheptane] | 2
CCOC(=O)[C@H](C)N[C@@H](Cc1ccccc1)C(=O)N[C@@H](Cc1c[nH]cn1)C(=O)N[C@@H](CC1CCCCC1)[C@@H](O)[C@@H](O)CC(C)C [Example 185B, [l(S)-(Ethoxycarbonyl)-ethyl]-Phe-His Amide of 2(S)-Amino-1-cyclohexyl-3(R),4(S)-dihydroxy-6-methylheptane] | 0.51
CC(C)C[C@H](O)[C@H](O)[C@H](CC1CCCCC1)NC(=O)[C@H](Cc1c[nH]cn1)NC(=O)C(NC(=O)N1CCOCC1)C(C)(C)c1ccccc1 (stereo partly drawn) [Example 178, 2(R,S)-[[(4-Morpholinyl)carbonyl]amino]-3,3-dimethyl-3-phenylpropionyl-His Amide of 2(S)-Amino-l-cyclohexyl-3(R),4(S)-dihydroxy-6-methylheptane] | 2
CC(C)C[C@H](O)[C@H](O)[C@H](CC1CCCCC1)NC(=O)[C@H](Cc1c[nH]cn1)NC(=O)[C@H](Cc1ccccc1)NC(=O)[C@@H](C)N [Example 70, H-D-Ala-Phe-His Amide of 2(S)-Amino-l-cyclohexyl-3(R), 4(S)-dihydroxy-6-methylheptane Diacetic Acid Salt] | 2.5
CC(C)C[C@H](O)[C@H](O)[C@H](CC1CCCCC1)NC(=O)[C@H](Cc1c[nH]cn1)NC(=O)[C@H](CC1CCCCC1)NC(=O)CC(C)(C)C [Example 21, TBA-CHA-His Amide of 2(S)-Amino-l-cyclohexyl-3(R),4(S)-dihydroxy-6-methylheptane] | 2
CC(C)C[C@H](O)[C@H](O)[C@H](CC1CCCCC1)NC(=O)[C@H](Cc1c[nH]cn1)NC(=O)[C@H](Cc1ccccc1)NC(=O)c1ccc[nH]1 [Example 89, (Pyrrol-2-yl-carbonyl)-Phe-His Amide of 2(S)-Amino-1-cyclohexyl-3(R),4(S)-dihydroxy-6-methylheptane] | 1
CC(C)C[C@H](O)[C@H](O)[C@H](CC1CCCCC1)NC(=O)[C@H](Cc1c[nH]cn1)NC(=O)[C@H](Cc1ccccc1)NC(=O)C1CCNCC1 [Example 68, H-Isonipectoyl-Phe-His Amide of 2(S)-Amino-l-cyclohexyl-3(R),4(S)-dihydroxy-6-methylheptane Diacetic Acid Salt] | 1

same assay, conditions: human renal renin free from acid proteolytic activity, renin substrate human angiotensinogen, 37° C., pH 6.0

SMILES | IC50 [nM]
CC(C)C[C@H](O)[C@H](O)[C@H](CC1CCCCC1)NC(=O)[C@H](Cc1c[nH]cn1)NC(=O)[C@H](Cc1ccccc1)NC(=O)N1CCNCC1 [Example 124, [(1-Piperazinyl)carbonyl]-Phe-His Amide of 2(S)-Amino-1-cyclohexyl-3(R),4(S)-dihydroxy-6-methylheptane Bis-Acetic Acid Salt] | 0.65
CC(C)(C)OC(=O)N[C@@H](Cc1ccccc1)C(=O)N[C@@H](Cc1c[nH]cn1)C(=O)N[C@@H](CC1CCCCC1)[C@@H](O)CO [Example 6, Boc-Phe-His Amides of 3(S)-Amino-4-cyclohexyl-1,2(R)-dihydroxybutane] | 50
CCOC(=O)N[C@@H](Cc1ccc(OC)cc1)C(=O)N[C@@H](Cc1c[nH]cn1)C(=O)N[C@@H](CC1CCCCC1)[C@@H](O)[C@@H](O)CC(C)C [Example 22, Ethoxycarbonyl-(OCH3)Tyr-His Amide of 2(S)-Amino-1-cyclohexyl-3(R),4(S)-dihydroxy-6-methylheptane] | 1.5
